We go through two compounds from paper PMC11188740, “A small molecule that inhibits the evolution of antibiotic resistance” (NAR Molecular Medicine, 2024).

Assay [1] has as its target T1, Mfd (Escherichia coli, UniProt P30958).
T1 construct: purified His-tagged E. coli Mfd (expressed from pCA24N-Mfd)
In words: microscale thermophoresis (His-tag labeled Mfd); also RNAP displacement assay with purified Mfd. Format: binding. (MST reads how a fluorescent partner responds to local heating, with and without ligand.)

Assay [2] concerns the target T1, Mfd. The assay can be described thus: NADH-coupled ATPase assay, Michaelis–Menten Km without ARM-1. Type of assay: biochemical. An excerpt: NADH-coupled ATPase assay, Michaelis–Menten Km without ARM-1 on Mfd | Kinetic constants of Mfd ATPase activity determined using Michaelis–Menten modeling

T1 sequence (P30958 whole entry): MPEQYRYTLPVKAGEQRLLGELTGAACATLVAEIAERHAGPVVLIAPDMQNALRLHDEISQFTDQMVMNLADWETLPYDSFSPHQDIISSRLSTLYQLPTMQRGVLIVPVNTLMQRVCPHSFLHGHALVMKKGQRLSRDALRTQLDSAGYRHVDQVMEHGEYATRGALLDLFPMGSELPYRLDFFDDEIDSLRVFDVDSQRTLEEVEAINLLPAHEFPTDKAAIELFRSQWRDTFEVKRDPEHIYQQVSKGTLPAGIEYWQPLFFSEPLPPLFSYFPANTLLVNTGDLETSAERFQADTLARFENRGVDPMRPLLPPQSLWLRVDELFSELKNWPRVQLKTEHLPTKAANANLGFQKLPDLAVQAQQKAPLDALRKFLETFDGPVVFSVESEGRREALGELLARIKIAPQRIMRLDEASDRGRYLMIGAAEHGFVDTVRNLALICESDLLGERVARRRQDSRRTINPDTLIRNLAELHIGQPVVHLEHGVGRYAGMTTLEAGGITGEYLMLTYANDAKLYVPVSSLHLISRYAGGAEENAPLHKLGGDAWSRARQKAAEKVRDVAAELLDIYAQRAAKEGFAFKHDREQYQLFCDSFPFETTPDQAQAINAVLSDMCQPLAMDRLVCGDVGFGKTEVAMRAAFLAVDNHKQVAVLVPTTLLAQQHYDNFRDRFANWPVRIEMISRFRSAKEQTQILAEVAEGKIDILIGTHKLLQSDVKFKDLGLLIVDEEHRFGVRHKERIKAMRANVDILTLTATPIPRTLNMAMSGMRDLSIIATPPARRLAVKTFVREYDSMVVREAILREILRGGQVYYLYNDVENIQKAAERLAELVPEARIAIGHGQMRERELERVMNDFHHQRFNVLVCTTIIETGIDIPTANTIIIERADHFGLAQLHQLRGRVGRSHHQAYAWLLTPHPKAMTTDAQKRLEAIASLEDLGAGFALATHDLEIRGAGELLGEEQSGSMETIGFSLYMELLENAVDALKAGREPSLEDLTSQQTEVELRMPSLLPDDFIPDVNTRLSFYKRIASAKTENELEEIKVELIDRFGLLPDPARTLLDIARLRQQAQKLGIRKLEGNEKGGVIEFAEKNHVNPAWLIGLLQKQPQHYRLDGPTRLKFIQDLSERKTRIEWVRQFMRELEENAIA

Broadly, the Kd is the free concentration of one partner at which half of the binding sites on the other are occupied at equilibrium, for simple one-to-one binding. Lower therefore signals tighter binding. Turning to `Cc1cc(Br)ccc1-c1ccc(CNCCCN(C)C)o1` [ARM-1], on Mfd [1], binding was put at a Kd of 4.25 µM.
`Nc1ncnc2c1ncn2[C@@H]1O[C@H](COP(=O)(O)OP(=O)(O)OP(=O)(O)O)[C@@H](O)[C@H]1O` [ATP]: the “K m / Mean” value on Mfd [2] is 0.954.
